# Source: patent US20090149472A1, “SALTS OF SUBSTITUTTED PYRAZOLINE COMPOUNDS, THEIR PREPARATION AND USE AND MEDICAMENTS” (Laboratorios Del Dr. Esteve, S.A., priority 2005, published 2009)
# Read-outs that look alike come from different tables or passages of the source.
# How the values were obtained:
# CB1-Receptor = CB1-Receptor (Homo sapiens, UniProt P21554); experiment: CB1 receptor binding, radioligand [3H]-SR141716A (Table Ia)
# [1] = target: T1, transfected human CB2 receptor (Homo sapiens, UniProt P34972); experiment: In-vitro affinity to CB2 receptor, radioligand [3H]-CP55940; format: binding
# T1 construct: purchased Receptor Biology, Inc
# T1 sequence (P34972 whole entry): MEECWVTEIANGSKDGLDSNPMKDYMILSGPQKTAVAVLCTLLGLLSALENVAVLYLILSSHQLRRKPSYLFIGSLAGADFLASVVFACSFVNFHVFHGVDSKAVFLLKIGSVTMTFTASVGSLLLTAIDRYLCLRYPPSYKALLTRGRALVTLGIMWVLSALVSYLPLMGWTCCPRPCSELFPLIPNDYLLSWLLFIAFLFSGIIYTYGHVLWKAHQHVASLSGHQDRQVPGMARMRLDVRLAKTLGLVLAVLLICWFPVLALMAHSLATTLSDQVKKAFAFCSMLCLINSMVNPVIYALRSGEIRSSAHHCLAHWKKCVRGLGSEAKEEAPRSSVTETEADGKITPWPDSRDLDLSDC
# Method: (§1) The in-vitro determination of the affinity of the inventive substituted pyrazoline compounds to CB1/CB2-Rezeptors is carried out as described in the publication of Ruth A. Ross, Heather C. Brockie et al., “Agonist-inverse agonist characterization at CB1 and CB2 cannabinoid receptors of L-759633, L759656 and AM630”, British Journal of Pharmacology, 126, 665-672, (1999), whereby the transfected human CB1 and CB2 receptors of Receptor Biology, Inc. are used. The radioligand used for both receptors is [^3H]-CP55940. The respective parts of the description is hereby incorporated by reference and forms part of the present disclosure.
# (§2) The affinity of the inventive substituted pyrazoline compounds to CB1/CB2 receptors was determined as described above.
# male NMRI mice [2] = experiment: Mouse tetrad model, agonistic effect; format: in vivo; parameters: key to Agonistic effect D: Sedation: % of sedation = mean score (0–3 scale) / 3 × 100; Agonistic effect A: Hot-Plate test / Agonistic effect B: Hypothermia / Agonistic effect C: Catalepsy: unit not given here; conditions: 5 mg/kg i.v.
# Description: (§3) Substances with affinity for cannabinoid receptors are known to produce a wide range of pharmacological effects. It is also known that intravenous administration of a substance with affinity for cannabinoid receptors in mice produces analgesia, hypothermia, sedation and catalepsy. Individually, none of these effects can be considered as proof that a tested substance has affinity for cannabinoid-receptors, since all of these effects are common for various classes of centrally active agents. However, substances, which show all of these effects, i.e. substances that are active in this so-called tetrad model are considered to have affinity for the cannabinoid receptors.
# (§4) The tetrad model is described, for example, in the publication of A. C. Howlett et al, International Union of Pharmacology XXVII. Classification of Cannabinoid Receptors, Pharmacol Rev 54, 161-202, 2002 and David R. Compton et al., “In-vivo Characterization of a Specific Cannabinoid Receptor Antagonist (SR141716A):Inhibition of Tetrahydrocannbinol-induced Responses and Apparent Agonist Activity”, J. Pharmacol. Exp. Ther. 277, 2, 586-594, 1996. The corresponding parts of the description are hereby incorporated by reference.
# (§5) Male NMRI mice with a weight of 20-30 g (Harlan, Barcelona, Spain) are used in all of the following experiments.
# (§6) Before testing in the behavioral procedures given below, mice are acclimatized to the experimental setting. Pre-Treatment control values are determined for analgesia hot plate latency (in seconds), rectal temperature, sedation and catalepsy.
# In order to determine the agonistic activity of the substance to be tested, the mice are injected intravenously with the substance to be tested or the vehicle alone. 15 minutes after injection, latency in hot plate analgesia is measured. Rectal temperature, sedation and catalepsy are measured 20 minutes after injection.
# (§7) The hot plate analgesia is determined according to the method described in Woolfe D. et al. “The evaluation of analgesic action of pethidine hydrochloride (Demerol)”, J. Pharmacol. Exp. Ther. 80, 300-307, 1944. The respective description is hereby incorporated by reference and forms part of the present disclosure.
# (§8) The mice are placed on a hot plate (Harvard Analgesimeter) at 55±0.5° C. until they show a painful sensation by licking their paws or jumping and the time for these sensations to occur is recorded. This reading is considered the basal value (B). The maximum time limit the mice are allowed to remain on the hot plate in absence of any painful response is 40 seconds in order to prevent skin damage. This period is called the cut-off time (PC).
# (§9) Fifteen minutes after the administration of the substance to be tested, the mice are again placed on the hot plate and the afore described procedure is repeated. This period is called the post-treatment reading (PT).
# (§10) The degree of analgesia is calculated from the formula:
# (§11) % MPE of Analgesia=(PT−B)/(PC−B)×100
# (§12) Sedation and ataxia is determined according to the method described in Desmet L. K. C. et al. “Anticonvulsive properties of Cinarizine and Flunarizine in Rats and Mice”, Arzneim.-Forsch. (Frug Res) 25, 9, 1975. The respective description is hereby incorporated by reference and forms part of the present disclosure.
# (§13) The chosen scoring system is
# (§14) 0: no ataxia; 1: doubtful; 2: obvious calmness and quiet; 3 pronounced ataxia; prior to as well as after treatment.
# (§15) The percentage of sedation is determined according to the formula:
# (§16) % of sedation=arithmetic mean/3×100
# (§17) Hypothermia is determined according to the method described in David R. Compton et al. “In-vivo Characterization of a Specific Cannabinoid Receptor Antagonist (SR141716A) Inhibition of Tetrahydrocannbinol-induced Responses and Apparent Agonist Activity”, J. Pharmacol Exp Ther. 277, 2, 586-594, 1996. The respective description is hereby incorporated by reference and forms part of the present disclosure. […]
# [3] = In-vivo antidepressant activity, water despair test
# Method: The in-vivo testing for antidepressant activity of the inventive pyrazoline compounds in the water despair test is carried out as described in the publication of E. T. Tzavara et al., “The CB1 receptor antagonist SR141716A selectively increases monoaminergic neurotransmission in the medial prefrontal cortex: implications for therapeutic actons”; Br. J. Pharmacol. 2003, 138(4):544:53. The respective part of the description is hereby incorporated by reference and forms part of the present disclosure.
# The in-vivo testing for antidepressant activity of the inventive pyrazoline compounds in the water despair test was carried out as described above.
# [4] = target: T2, transfected human CB1 receptor (Homo sapiens, UniProt P21554); experiment: In-vitro affinity to CB1 receptor, radioligand [3H]-CP55940; format: binding
# T2 construct: purchased Receptor Biology, Inc
# T2 sequence (P21554 whole entry): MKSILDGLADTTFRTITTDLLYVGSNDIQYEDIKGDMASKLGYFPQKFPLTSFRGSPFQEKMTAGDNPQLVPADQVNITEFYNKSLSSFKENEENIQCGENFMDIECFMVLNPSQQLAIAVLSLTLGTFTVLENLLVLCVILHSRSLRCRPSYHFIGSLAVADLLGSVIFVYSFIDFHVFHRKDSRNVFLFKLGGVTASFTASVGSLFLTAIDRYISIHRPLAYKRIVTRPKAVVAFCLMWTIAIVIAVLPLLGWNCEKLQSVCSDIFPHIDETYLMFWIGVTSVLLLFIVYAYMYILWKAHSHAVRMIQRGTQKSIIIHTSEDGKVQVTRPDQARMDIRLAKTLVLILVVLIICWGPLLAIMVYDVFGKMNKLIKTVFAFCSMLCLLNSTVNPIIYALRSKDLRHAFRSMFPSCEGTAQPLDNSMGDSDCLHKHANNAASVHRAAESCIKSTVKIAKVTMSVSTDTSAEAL
# Method: as §1, §2
# rats = experiment: In-vivo testing for antiobesic activity; parameters: species or system rat
# Method: The in-vivo testing for antiobesic activity of the inventive pyrazoline compounds is carried out as described in the publication of G. Colombo et al., “Appetite Suppression and Weight Loss after the Cannabinoid Antagonist SR 141716”; Life Sciences, 63 (8), 113-117, (1998). The respective part of the description is hereby incorporated by reference and forms part of the present disclosure.
# The in-vivo testing for antiobesic activity was carried out as described above, whereby four different groups of 10 rats each were treated as follows:
# The second group of rats was treated with the inventive compound N-piperidinyl-5-(4-chlorophenyl)-1-(2,4-dichlorophenyl)-4,5-dihydropyrazole-3-carboxamide according to Example 1. Said compound was administered intraperitoneally to the rats over a period of 14 days in a daily dosis of (10 mg/kg body weight).
# male NMRI mice [5] = experiment: Mouse tetrad model, antagonistic effect against Win 55212-2; format: in vivo; parameters: unit not given here; conditions: 5 mg/kg i.v. prior to Win 55212-2 1.25 mg/kg i.v.
# Description: as §3, §4, §5, §6
# In order to determine the antagonistic activity the identical procedure is used as for the determination of the agonistic effects, but with the difference that the substance to be evaluated for its antagonistic activity is injected 5 minutes before the intravenous injection of 1.25 mg/kg Win-55,212 a known cannabinoid-receptor agonist.
# as §7, §8, §9, §10, §11, §12, §13, §14, §15, §16, §17
# [6] = read-out: CB1-Receptor Radioligand: [3H]-SR141716A % Inhibition 10^-7 M
# Sequence of CB1-Receptor (P21554 whole entry): as above
structure (smiles),measurement,setting,value
O=C(NN1CCCCC1)C1=NC(c2ccc(Cl)cc2Cl)[C@@H](c2ccc(Cl)cc2)C1 (stereo partly drawn),inhibition at 0.1 µM,"CB1-Receptor; 10^-7 M, [3H]-SR141716A, read-out: CB1-Receptor Radioligand: [3H]-SR141716A % Inhibition 10^-7 M",82.7%
O=C(NN1CCCCC1)C1=NN(c2ccc(Cl)cc2Cl)C(c2ccc(Cl)cc2)C1 (stereo not drawn) [drawing 82],inhibition at 0.1 µM,"CB1-Receptor; read-out: CB1-Receptor Radioligand: [3H]-SR141716A % Inhibition 10^-7 M, 10^-7 M, [3H]-SR141716A",82.6%
"O=C(NN1CCCCC1)C1=NN(c2ccc(Cl)cc2Cl)C(c2ccc(Cl)cc2)C1 (stereo not drawn) [Example 1, N-piperidinyl-5-(4-chlorophenyl)-1-(2,4-dichlorophenyl)-4,5-dihydro-1H-pyrazole-3-carboxamide]",Ki,[1],> 1000 nM
same,Agonistic effect A: Hot-Plate test,male NMRI mice [2],0
same,Agonistic effect B: Hypothermia,male NMRI mice [2],0
same,Agonistic effect C: Catalepsy,male NMRI mice [2],0
same,Agonistic effect D: Sedation,male NMRI mice [2],0
same,immobility time and struggling time,[3],positive effects
same,Ki,[4],< 25 nM
same,body weight,rats; 10 mg/kg daily intraperitoneally over 14 days (FIG. 1),lowered
same,food intake,rats; 10 mg/kg daily intraperitoneally over 14 days (FIG. 2),reduction
same,body weight effect after the treatment is ended,rats; after end of 14 days of 10 mg/kg daily i.p. (FIG. 1),also observed after the treatment is ended
same,Antagonistic Effect A: Hot-Plate test,male NMRI mice [5],74
same,Antagonistic Effect B: Hypothermia,male NMRI mice [5],100
same,Antagonistic Effect C: Catalepsy,male NMRI mice [5],100
same,Antagonistic Effect D: Sedation,male NMRI mice [5],100
CN1CCN(NC(=O)C2=NN(c3ccc(Cl)cc3Cl)C(c3ccc(Cl)cc3)C2)CC1.Cl (stereo not drawn),melting point,,150 to 155 °C
O=C(NN1CCCCC1)C1=NN(c2ccc(Cl)cc2Cl)[C@@H](c2ccc(Cl)cc2)C1,inhibition at 0.1 µM,CB1-Receptor; [6],83.3%
O=C(NN1CCCCC1)C1=NN(c2ccc(Cl)cc2Cl)C(c2ccc(Cl)cc2)C1 (stereo not drawn) [drawing 84],inhibition at 0.1 µM,CB1-Receptor; [6],99.7%
O=C(Nn1cnnc1)C1=NN(c2ccc(Cl)cc2Cl)C(c2ccc(Cl)cc2)C1 (stereo not drawn),melting point,,134 to 138 °C
"O=C(C1=NN(c2ccc(Cl)cc2Cl)C(c2ccc(Cl)cc2)C1)N1CCCCC1 (stereo not drawn) [Example 5, [5-(4-Chloro-phenyl)-1-(2,4-dichloro-phenyl)-4,5-dihydro-1H-pyrazol-3-yl]-piperidin-1-yl-methanone]",Agonistic effect A: Hot-Plate test,male NMRI mice [2],0
same,Agonistic effect B: Hypothermia,male NMRI mice [2],50
same,Agonistic effect C: Catalepsy,male NMRI mice [2],0
same,Agonistic effect D: Sedation,male NMRI mice [2],0
same,melting point,,105 to 110 °C
same,Antagonistic Effect A: Hot-Plate test,male NMRI mice [5],50
same,Antagonistic Effect B: Hypothermia,male NMRI mice [5],40
same,Antagonistic Effect C: Catalepsy,male NMRI mice [5],20
same,Antagonistic Effect D: Sedation,male NMRI mice [5],20
O=C(NN1CCCCC1)C1=NN(c2ccc(Cl)cc2Cl)C(c2ccc(Cl)cc2)C1.O=[N+]([O-])O (stereo not drawn),CB1-Receptor Radioligand: [3H]-SR141716A % Inhibition 10^-7 M,"CB1-Receptor; 10^-7 M, [3H]-SR141716A",83.6%
